The target in experiment [1] is T1, chitin synthase 2 of Saccharomyces cerevisiae ECY38-38A(pAS6) (Saccharomyces cerevisiae, UniProt P14180).
T1 construct: made in house; host or cells: Saccharomyces cerevisiae ECY38-38A (chs1-23 chs2::LEU2 cal1/csd2) carrying plasmid pAS6, grown in galactose medium; 130,000 x g membrane pellet
Briefly: In vitro enzyme assay for chitin synthase 2 of Saccharomyces cerevisiae (enzyme 2). The experiment is classed as biochemical. The settings on record: relative to polyoxin D (50% inhibitory activity = value 5). An outline of the steps: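 Crude membrane chitin synthase 2 came from S. cerevisiae ECY38-38A(pAS6), expressing only CHS2, and was trypsin-activated (15 min, 30 °C) then trypsin-inhibited. The reaction ran in 32 mM Tris-HCl pH 7.5, 2 mM cobalt acetate, 1.1 mM UDP-[14C]-GlcNAc, 90 min at 30 °C. TCA-precipitated product was counted by scintillation; scores 1–8 reflect concentration relative to polyoxin D's 50% inhibition (score 5).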

The subject of a further experiment is chitin synthases. Briefly: Inhibitory activity against the chitin synthases (summary statements). The experiment is classed as biochemical. An excerpt: The inhibitory activities against the chitin synthase 1 of Candida albicans chs2 Δ chs 3 Δ (abbreviated as ‘enzyme 1’) and the chitin synthase 2 of Saccharomyces cerevisiae ECY38-38A(pAS6)(abbreviated as ‘enzyme 2’) was examined for compound Nos. 1 to 70 compound and polyoxin D, a positive control compound.
The inhibitory activity against the chitin synthase 1 prepared from Candida albicans and the chitin synthase 2 prepared from Saccharomyces cerevisiae were examined as follows. A reaction mixture containing 32 mM Tris-HCl (pH 7.5), 2 mM cobalt acetate, 1.1 mM UDP-[U-^14C]-N-acetyl-d-glucosamine (GlcNAc) (400,000 cpm/μmol), 2 μL of trypsin (0.75 mg/mL), 20 μL of each crude enzyme and 14 μL of each test sample was kept at 30° C. for 15 minutes to activate the enzyme. Then, 2 μL of trypsin inhibitor (1.5 mg/mL) was added and the mixture was kept in an ice bath for 10 minutes to deactivate trypsin. 2 μL of 0.8 M N-acetyl-d-glucosamine was added to a total volume of 50 μL and reaction was performed at 30° C. for 90 minutes. The reaction was stopped using 1 mL of 10% TCA solution and the reaction solution was filtered with a GF/C filter and dried at room temperature. After adding 3 mL of a scintillation cocktail solution, the amount of isotopes was measured using a liquid scintillation counter. Percentage inhibition against each enzyme was calculated by the following Equation 1.

Another experiment concerns human pathogenic fungi. The experiment can be described thus: Antifungal activity against human pathogenic fungi (summary statements). In kind it is cell-based. An excerpt:
Candida albicans ATCC 10231, Candida lusitaniae ATCC 42720, Candida krusei ATCC 6258, Candida tropicalis ATCC 13803, Candida glabrata ATCC 48435, Candida parapsilosis ATCC 34136, Cryptococcus neoformans ATCC 36556, Aspergillus fumigatus ATCC 16424, Aspergillus flavus ATCC 64025, Aspergillus terreus ATCC 46941 and Mucor ramosissimus ATCC 90286 strains for the MIC (minimum inhibitory concentration) measurement were obtained from ATCC (American Type Culture Collection) in the U.S. The Candida albicans A207(clinical isolate) strain was used by isolating it from the patients.
The determination of MIC was performed according to the NCCLS (National Committee for Clinical Laboratory Standard) method. Each test sample solution was diluted two-fold and inoculated with a fungal suspension to reach a final inoculum size of 5×10^2 to 2.5×10^3 cell/mL. The Cryptococcus neoformans strain was cultured in the RPMI 1640 medium for 72 hours. Other strains were cultured for 48 hours.

The test system of experiment [2] is Candida albicans A207 (clinical isolate). The experiment can be described thus: In vitro antifungal activity (MIC), NCCLS method. The experiment is classed as cell-based. The note with it: 48 hours. An outline of the steps: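 Two-fold dilutions, final inoculum 5×10^2–2.5×10^3 cell/mL, NCCLS protocol; 48 h culture for these strains. MIC = minimum inhibitory concentration.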

Experiment [3] relates to Candida parapsilosis ATCC 34136. The experiment can be described thus: In vitro antifungal activity (MIC), NCCLS method. In kind it is cell-based. The settings on record: Candida parapsilosis ATCC 34136; 48 hours. In a few lines:
(§1)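 Broth MIC by NCCLS two-fold dilution, final inoculum 5×10^2 to 2.5×10^3 cell/mL. Candida and Mucor strains incubated 48 hours.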

The subject of experiment [4] is Mucor ramosissimus ATCC 90286. Briefly: In vitro antifungal activity (MIC), NCCLS method. In kind it is cell-based. The note with it: 48 hours. In a few lines:
as §1

Experiment [5] concerns Candida tropicalis ATCC 13803. The experiment can be described thus: In vitro antifungal activity (MIC), NCCLS method. In kind it is cell-based. The note with it: 48 hours. In a few lines: as §1
The subject of experiment [6] is Aspergillus flavus ATCC 64025. The experiment can be described thus: In vitro antifungal activity (MIC), NCCLS method. The experiment is classed as cell-based. The settings on record: 48 hours. An outline of the steps: (§2)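 Test samples were serially diluted two-fold, then inoculated with fungus to a final cell density of 5×10^2 to 2.5×10^3 cell/mL, following the NCCLS method. Plates were cultured for 48 hours and the minimum inhibitory concentration recorded.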

In experiment [7] the test system is Aspergillus fumigatus ATCC 16424. The experiment can be described thus: In vitro antifungal activity (MIC), NCCLS method. In kind it is cell-based. The note with it: 48 hours. An outline of the steps:
as §2

The next experiment has as its system Candida krusei ATCC 6258. Briefly: In vitro antifungal activity (MIC), NCCLS method. The note with it: 48 hours. The experiment is classed as cell-based. An outline of the steps:
as §1

Experiment [8] deals with Cryptococcus neoformans ATCC 36556. The experiment can be described thus: In vitro antifungal activity (MIC), NCCLS method. The experiment is classed as cell-based. The settings on record: RPMI 1640 medium, 72 hours. An outline of the steps: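 Broth microdilution per NCCLS: two-fold serial dilutions of test compound inoculated with fungal suspension at a final 5×10^2 to 2.5×10^3 cell/mL. Strains other than Cryptococcus neoformans were incubated 48 hours before MIC reading.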

The test system of experiment [9] is Candida glabrata ATCC 48435. The experiment can be described thus: In vitro antifungal activity (MIC), NCCLS method. In kind it is cell-based. The settings on record: Candida glabrata ATCC 48435; 48 hours. In a few lines: as §1
Experiment [10] has as its system Candida albicans ATCC 10231. Briefly: In vitro antifungal activity (MIC), NCCLS method. The experiment is classed as cell-based. The settings on record: 48 hours. An outline of the steps: as §1
Experiment [11] deals with Candida lusitaniae ATCC 42720. Briefly: In vitro antifungal activity (MIC), NCCLS method. The experiment is classed as cell-based. The settings on record: 48 hours. In a few lines:
as §1

The subject of experiment [12] is Aspergillus terreus ATCC 46941. Briefly: In vitro antifungal activity (MIC), NCCLS method. In kind it is cell-based. The settings on record: 48 hours. In a few lines: as §2
Experiment [13] has as its target T2, chitin synthase 1 of Candida albicans chs2 Δ chs 3 Δ (Candida albicans, UniProt P23316).
T2 construct: Crude enzyme was prepared using the Candida albicans chs2 Δ chs 3 Δ mutant; endogenous in cells; host or cells: Candida albicans chs2Δ/chs2Δ chs3Δ/chs3Δ mutant; 130,000 x g membrane pellet
The experiment can be described thus: In vitro enzyme assay for chitin synthase 1 of Candida albicans (enzyme 1). The experiment is classed as biochemical. The settings on record: relative to polyoxin D (50% inhibitory activity = value 5). An outline of the steps:
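Crude membrane enzyme from the C. albicans chs2Δ chs3Δ strain was trypsin-activated for 15 min at 30 °C. Reaction: 32 mM Tris-HCl pH 7.5, 2 mM cobalt acetate, 1.1 mM UDP-[14C]GlcNAc, 90 min at 30 °C; TCA-insoluble radioactivity counted. Scored 1–8 by relative polyoxin D concentration (5 = equal).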

T2 sequence (P23316 whole entry, stated change not applied): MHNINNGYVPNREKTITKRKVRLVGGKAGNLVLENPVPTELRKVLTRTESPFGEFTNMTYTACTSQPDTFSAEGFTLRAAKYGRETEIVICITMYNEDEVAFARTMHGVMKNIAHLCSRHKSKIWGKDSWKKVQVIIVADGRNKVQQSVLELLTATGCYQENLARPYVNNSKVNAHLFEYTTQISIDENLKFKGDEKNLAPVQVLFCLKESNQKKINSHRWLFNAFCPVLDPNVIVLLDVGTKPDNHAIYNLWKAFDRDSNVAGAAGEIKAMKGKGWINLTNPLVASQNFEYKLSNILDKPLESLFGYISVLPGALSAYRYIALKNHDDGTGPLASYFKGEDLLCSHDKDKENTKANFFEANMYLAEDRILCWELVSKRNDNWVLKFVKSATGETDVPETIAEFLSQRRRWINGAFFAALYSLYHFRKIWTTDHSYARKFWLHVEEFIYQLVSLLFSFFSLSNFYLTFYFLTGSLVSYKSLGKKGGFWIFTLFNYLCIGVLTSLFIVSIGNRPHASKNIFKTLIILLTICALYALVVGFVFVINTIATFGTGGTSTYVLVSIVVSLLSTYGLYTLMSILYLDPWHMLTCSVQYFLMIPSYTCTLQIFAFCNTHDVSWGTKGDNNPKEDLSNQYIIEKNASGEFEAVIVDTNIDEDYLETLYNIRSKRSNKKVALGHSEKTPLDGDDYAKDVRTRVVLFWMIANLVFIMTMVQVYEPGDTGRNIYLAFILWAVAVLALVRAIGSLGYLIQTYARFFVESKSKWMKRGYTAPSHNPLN
T1 sequence (P14180 whole entry): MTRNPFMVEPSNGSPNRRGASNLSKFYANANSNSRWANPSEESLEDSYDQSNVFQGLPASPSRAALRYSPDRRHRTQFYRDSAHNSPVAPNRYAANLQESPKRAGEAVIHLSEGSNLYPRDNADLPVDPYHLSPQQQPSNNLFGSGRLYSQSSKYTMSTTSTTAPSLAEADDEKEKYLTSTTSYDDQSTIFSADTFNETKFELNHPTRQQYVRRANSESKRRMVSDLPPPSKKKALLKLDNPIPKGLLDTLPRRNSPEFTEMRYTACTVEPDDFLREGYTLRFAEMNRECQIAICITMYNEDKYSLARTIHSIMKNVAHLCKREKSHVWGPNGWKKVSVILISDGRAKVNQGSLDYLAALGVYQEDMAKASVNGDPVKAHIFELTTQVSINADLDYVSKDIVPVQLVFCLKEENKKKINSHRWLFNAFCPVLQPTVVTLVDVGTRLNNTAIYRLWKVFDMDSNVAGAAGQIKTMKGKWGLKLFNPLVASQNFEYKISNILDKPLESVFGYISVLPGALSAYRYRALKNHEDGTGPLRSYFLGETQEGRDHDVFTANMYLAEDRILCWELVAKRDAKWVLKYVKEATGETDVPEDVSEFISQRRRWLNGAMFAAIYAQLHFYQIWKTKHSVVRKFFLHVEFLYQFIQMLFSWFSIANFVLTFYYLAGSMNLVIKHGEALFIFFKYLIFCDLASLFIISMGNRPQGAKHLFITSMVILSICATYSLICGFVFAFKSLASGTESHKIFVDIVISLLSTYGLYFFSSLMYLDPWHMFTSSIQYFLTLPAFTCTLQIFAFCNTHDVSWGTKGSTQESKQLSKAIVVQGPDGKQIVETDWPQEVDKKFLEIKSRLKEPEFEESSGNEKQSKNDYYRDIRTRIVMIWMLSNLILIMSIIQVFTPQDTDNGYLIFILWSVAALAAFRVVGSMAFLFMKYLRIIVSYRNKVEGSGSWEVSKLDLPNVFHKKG

Turning to “13-(4-Isopropylbenzyl)-9-O-propylberberrubine chloride [Compound No. 49]”, in experiment [1], the “Relative activity Enzyme 2” value was 7 (compounds having the inhibitory activity at ½, ¼ and ⅛ lower concentrations than that of polyoxin D were given the values of 6, 7 and 8, respectively). Moreover, in the experiment on chitin synthases, the “inhibitory activities against the chitin synthases (in words)” value (shortened to “inhibitory activities”) is “exceptionally superior inhibitory activities”. Also, in the experiment on human pathogenic fungi, the “antifungal activities compared with amphotericin B (in words)” value is “comparable to that of amphotericin B”. Also, the “MIC (minimum inhibitory concentration)” value in experiment [2] turned out to be 1 µg/mL; in experiment [3], 4 µg/mL; in experiment [4], 4 µg/mL; in experiment [5], 0.5 µg/mL; in experiment [6], 8 µg/mL; in [7], 4 µg/mL. The “MIC (minimum inhibitory concentration)” value against Candida krusei ATCC 6258 is 2 µg/mL; in experiment [8], 2 µg/mL; in experiment [9], 4 µg/mL; in experiment [10], 1 µg/mL; in experiment [11] it was 1 µg/mL; in experiment [12], 8 µg/mL. Further, the “Relative activity Enzyme 1” value in [13] is 4 (Compounds having the inhibitory activity at 2-fold, 4-fold, 8-fold and 16-fold higher concentrations than that of polyoxin D were given the values of 4, 3, 2 and 1, respectively).

“13-(4-Isopropylbenzyl)-9-O-propylberberrubine iodide [Compound No. 17]”: the “Relative activity Enzyme 2” value in experiment [1] was 7 (compounds having the inhibitory activity at ½, ¼ and ⅛ lower concentrations than that of polyoxin D were given the values of 6, 7 and 8, respectively). Moreover, the “inhibitory activities” value in the experiment on chitin synthases is reported as “exceptionally superior inhibitory activities”. The “antifungal activities compared with amphotericin B (in words)” value with human pathogenic fungi is “comparable to that of amphotericin B”. Moreover, the “MIC (minimum inhibitory concentration)” value in [2] turned out to be 1 µg/mL; in [3] it was 4 µg/mL; in experiment [4] it was 4 µg/mL; in experiment [5] it was 0.5 µg/mL; in experiment [6], 8 µg/mL; in experiment [7], 4 µg/mL. Also, the “MIC (minimum inhibitory concentration)” value came to 2 µg/mL with Candida krusei ATCC 6258; 2 µg/mL in experiment [8]; 4 µg/mL in [9]; 1 µg/mL in experiment [10]; 2 µg/mL in [11]; 8 µg/mL in experiment [12]. Besides, in [13], the “Relative activity Enzyme 1” value is 4 (Compounds having the inhibitory activity at 2-fold, 4-fold, 8-fold and 16-fold higher concentrations than that of polyoxin D were given the values of 4, 3, 2 and 1, respectively).

Take “13-(4-tert-Butylbenzyl)-9-O-butylberberrubine chloride [Compound No. 40]”: in [1], the “Relative activity Enzyme 2” value was 7 (compounds having the inhibitory activity at ½, ¼ and ⅛ lower concentrations than that of polyoxin D were given the values of 6, 7 and 8, respectively). For the same substance, the “inhibitory activities” value with chitin synthases is recorded as “exceptionally superior inhibitory activities”. Moreover, in the experiment on human pathogenic fungi, the “antifungal activities compared with amphotericin B (in words)” value is on record as “comparable to that of amphotericin B”. Also, the “MIC (minimum inhibitory concentration)” value was determined as 0.5 µg/mL in experiment [2]; 4 µg/mL in experiment [3]; 4 µg/mL in experiment [4]; 0.25 µg/mL in experiment [5]; 8 µg/mL in experiment [6]; 2 µg/mL in experiment [7]. Further, the “MIC (minimum inhibitory concentration)” value in the experiment on Candida krusei ATCC 6258 is 1 µg/mL; in [8] it was 1 µg/mL; in [9] it was 4 µg/mL; in [10], 0.5 µg/mL; in [11], 0.5 µg/mL; in experiment [12], 8 µg/mL. Further, the “Relative activity Enzyme 1” value in experiment [13] was 4 (Compounds having the inhibitory activity at 2-fold, 4-fold, 8-fold and 16-fold higher concentrations than that of polyoxin D were given the values of 4, 3, 2 and 1, respectively).

As to “13-(4-tert-Butylbenzyl)-9-O-propylberberrubine chloride [Compound No. 39]”, the “Relative activity Enzyme 2” value in experiment [1] was 7 (compounds having the inhibitory activity at ½, ¼ and ⅛ lower concentrations than that of polyoxin D were given the values of 6, 7 and 8, respectively). Besides, the “inhibitory activities” value in the experiment on chitin synthases was “exceptionally superior inhibitory activities”. Further, the “antifungal activities compared with amphotericin B (in words)” value in the experiment on human pathogenic fungi is recorded as “comparable to that of amphotericin B”. The “MIC (minimum inhibitory concentration)” value in experiment [2] was determined as 1 µg/mL; in experiment [3] it was 4 µg/mL; in experiment [4], 4 µg/mL; in experiment [5], 0.5 µg/mL; in experiment [6], 8 µg/mL; in experiment [7], 4 µg/mL. Moreover, the “MIC (minimum inhibitory concentration)” value against Candida krusei ATCC 6258 turned out to be 2 µg/mL; in experiment [8], 2 µg/mL; in experiment [9], 4 µg/mL; in experiment [10] it was 1 µg/mL; in experiment [11] it was 1 µg/mL; in experiment [12] it was 8 µg/mL. In addition, in [13], the “Relative activity Enzyme 1” value is 4 (Compounds having the inhibitory activity at 2-fold, 4-fold, 8-fold and 16-fold higher concentrations than that of polyoxin D were given the values of 4, 3, 2 and 1, respectively).

Source of the values: patent publication US7915276B2, “Berberrubine derivatives having antifungal activities” (priority 2006, dated 2011).
